According to PubChem BioAssay AID2060899 (Molecular Pharmacology Branch, DTP, NCI, 2025):
pIC50: −log10 of the molar value. Blank lines part the entries; values can stand above or below the compound they belong to.

Tested on: 565726-208-R1-J5-PDC complex spheroids, growth inhibition
Test: Anticancer human tumor 565726-208-R1-J5-PDC patient-derived pancreatic adenocarcinoma cell line growth inhibition [RAS]
Settings: for pIC50: curve of first compound; for viability, T/C: stronger effect = lower value
Summary of the method: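 Agents were tested in combination matrices in half-log decrements from a top concentration at or near clinical Cmax (10 microM if undetermined). Targets were multi-cell spheroids of tumour lines plus HUVEC and MSC stromal cells.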

[1] = second compound 0.000949 µM, first compound 0.0316 µM
[2] = second compound 0.000949 µM, first compound 0.1 µM
[3] = second compound 0.003 µM, first compound 0.0316 µM
[4] = second compound 0.003 µM, first compound 0.1 µM
[5] = second compound 0.00949 µM, first compound 0.0316 µM
[6] = second compound 0.00949 µM, first compound 0.1 µM
[7] = second compound 0.03 µM, first compound 0.0316 µM
[8] = second compound 0.03 µM, first compound 0.1 µM
[9] = second compound 0.0949 µM, first compound 0.0316 µM
[10] = second compound 0.0949 µM, first compound 0.1 µM
[11] = second compound 0.3 µM, first compound 0.0316 µM
[12] = second compound 0.3 µM, first compound 0.1 µM
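Further: spheroids exposed to compounds for seven days before readout.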
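Wherever viability, T/C is given: 100% = DMSO vehicle control viability.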

pIC50 (second compound 0.000949 µM): 7.72 | pIC50 (second compound 0.003 µM): 7.57 | pIC50 (second compound 0.00949 µM): 7.61 | pIC50 (second compound 0.03 µM): 7.64 | pIC50 (second compound 0.0949 µM): 7.73 | pIC50 (second compound 0.3 µM): 7.89
SMILES: CC(C)n1nc(-c2ccc3oc(N)nc3c2)c2c(N)ncnc21 + CCn1c(-c2cccnc2C(C)OC)c2c3cc(ccc31)N1CCOC(CC(NC(=O)C(C(C)C)N(C)C(=O)C3(F)CCN(C(=O)C#CC(C)(C)N(C)C)CC3)C(=O)N3CCCC(N3)C(=O)OCC(C)(C)C2)C1
viability, T/C (second compound 0.000949 µM, first compound 0.000316 µM): 95.6% | viability, T/C (second compound 0.000949 µM, first compound 0.001 µM): 91.2% | viability, T/C (second compound 0.000949 µM, first compound 0.00316 µM): 91.5% | viability, T/C (second compound 0.000949 µM, first compound 0.01 µM): 59.8% | viability, T/C [1]: 43.4% | viability, T/C [2]: 27.5% | viability, T/C (second compound 0.003 µM, first compound 0.000316 µM): 101% | viability, T/C (second compound 0.003 µM, first compound 0.001 µM): 90.5% | viability, T/C (second compound 0.003 µM, first compound 0.00316 µM): 85.2% | viability, T/C (second compound 0.003 µM, first compound 0.01 µM): 67.1% | viability, T/C [3]: 46.5% | viability, T/C [4]: 28.1% | viability, T/C (second compound 0.00949 µM, first compound 0.000316 µM): 103% | viability, T/C (second compound 0.00949 µM, first compound 0.001 µM): 93.9% | viability, T/C (second compound 0.00949 µM, first compound 0.00316 µM): 86.8% | viability, T/C (second compound 0.00949 µM, first compound 0.01 µM): 69.8% | viability, T/C [5]: 43.2% | viability, T/C [6]: 26.9% | viability, T/C (second compound 0.03 µM, first compound 0.000316 µM): 83.2% | viability, T/C (second compound 0.03 µM, first compound 0.001 µM): 91% | viability, T/C (second compound 0.03 µM, first compound 0.00316 µM): 79% | viability, T/C (second compound 0.03 µM, first compound 0.01 µM): 68.8% | viability, T/C [7]: 43% | viability, T/C [8]: 26.7% | viability, T/C (second compound 0.0949 µM, first compound 0.000316 µM): 93% | viability, T/C (second compound 0.0949 µM, first compound 0.001 µM): 92.1% | viability, T/C (second compound 0.0949 µM, first compound 0.00316 µM): 82.5% | viability, T/C (second compound 0.0949 µM, first compound 0.01 µM): 62.1% | viability, T/C [9]: 40.2% | viability, T/C [10]: 25.1% | viability, T/C (second compound 0.3 µM, first compound 0.000316 µM): 89.3% | viability, T/C (second compound 0.3 µM, first compound 0.001 µM): 85.1% | viability, T/C (second compound 0.3 µM, first compound 0.00316 µM): 75.2% | viability, T/C (second compound 0.3 µM, first compound 0.01 µM): 54.8% | viability, T/C [11]: 33.8% | viability, T/C [12]: 24%

pIC50 (second compound 0.00316 µM): 7.02 | pIC50 (second compound 0.01 µM): 7.03 | pIC50 (second compound 0.0316 µM): < 6.00 | pIC50 (second compound 0.1 µM): 6.64 | pIC50 (second compound 0.316 µM): 7.05 | pIC50 (second compound 1 µM): 6.00
SMILES: Nc1ccn(C2OC(CO)C(O)C2(F)F)c(=O)n1 (stereo unspecified) + C=CC(=O)N1CCN(c2nc(OCC3CCCN3C)nc3c(F)c(-c4nc(N)cc(C)c4C(F)(F)F)c(Cl)cc23)C(C)C1
viability, T/C (second compound 0.00316 µM, first compound 0.00316 µM): 89.3% | viability, T/C (second compound 0.00316 µM, first compound 0.01 µM): 151% | viability, T/C (second compound 0.00316 µM, first compound 0.0316 µM): 76.5% | viability, T/C (second compound 0.00316 µM, first compound 0.1 µM): 54.6% | viability, T/C (second compound 0.00316 µM, first compound 0.316 µM): 52.6% | viability, T/C (second compound 0.00316 µM, first compound 1 µM): 39% | viability, T/C (second compound 0.01 µM, first compound 0.00316 µM): 113% | viability, T/C (second compound 0.01 µM, first compound 0.01 µM): 149% | viability, T/C (second compound 0.01 µM, first compound 0.0316 µM): 84.9% | viability, T/C (second compound 0.01 µM, first compound 0.1 µM): 48% | viability, T/C (second compound 0.01 µM, first compound 0.316 µM): 50.5% | viability, T/C (second compound 0.01 µM, first compound 1 µM): 44.8% | viability, T/C (second compound 0.0316 µM, first compound 0.00316 µM): 148% | viability, T/C (second compound 0.0316 µM, first compound 0.01 µM): 160% | viability, T/C (second compound 0.0316 µM, first compound 0.0316 µM): 77.1% | viability, T/C (second compound 0.0316 µM, first compound 0.1 µM): 59.4% | viability, T/C (second compound 0.0316 µM, first compound 0.316 µM): 48.9% | viability, T/C (second compound 0.0316 µM, first compound 1 µM): 49% | viability, T/C (second compound 0.1 µM, first compound 0.00316 µM): 156% | viability, T/C (second compound 0.1 µM, first compound 0.01 µM): 134% | viability, T/C (second compound 0.1 µM, first compound 0.0316 µM): 89.5% | viability, T/C (second compound 0.1 µM, first compound 0.1 µM): 58.1% | viability, T/C (second compound 0.1 µM, first compound 0.316 µM): 47.5% | viability, T/C (second compound 0.1 µM, first compound 1 µM): 46.3% | viability, T/C (second compound 0.316 µM, first compound 0.00316 µM): 139% | viability, T/C (second compound 0.316 µM, first compound 0.01 µM): 134% | viability, T/C (second compound 0.316 µM, first compound 0.0316 µM): 72.7% | viability, T/C (second compound 0.316 µM, first compound 0.1 µM): 46.4% | viability, T/C (second compound 0.316 µM, first compound 0.316 µM): 52.7% | viability, T/C (second compound 0.316 µM, first compound 1 µM): 41.5% | viability, T/C (second compound 1 µM, first compound 0.00316 µM): 153% | viability, T/C (second compound 1 µM, first compound 0.01 µM): 142% | viability, T/C (second compound 1 µM, first compound 0.0316 µM): 82.3% | viability, T/C (second compound 1 µM, first compound 0.1 µM): 58.3% | viability, T/C (second compound 1 µM, first compound 0.316 µM): 55.3% | viability, T/C (second compound 1 µM, first compound 1 µM): 45.6%

pIC50 (second compound 0.000949 µM): < 5.00 | pIC50 (second compound 0.003 µM): < 5.00 | pIC50 (second compound 0.00949 µM): < 5.00 | pIC50 (second compound 0.03 µM): < 5.00 | pIC50 (second compound 0.0949 µM): < 5.00 | pIC50 (second compound 0.3 µM): < 5.00
SMILES: Cc1nc(N2CCC3(CC2)COC(C)C3N)c(CO)nc1Sc1ccnc(N)c1Cl (stereo unspecified) + CCn1c(-c2cccnc2C(C)OC)c2c3cc(ccc31)N1CCOC(CC(NC(=O)C(C(C)C)N(C)C(=O)C3(F)CCN(C(=O)C#CC(C)(C)N(C)C)CC3)C(=O)N3CCCC(N3)C(=O)OCC(C)(C)C2)C1
viability, T/C [1]: 95.1% | viability, T/C [2]: 92.8% | viability, T/C (second compound 0.000949 µM, first compound 0.316 µM): 84.9% | viability, T/C (second compound 0.000949 µM, first compound 1 µM): 73.7% | viability, T/C (second compound 0.000949 µM, first compound 3.16 µM): 80% | viability, T/C (second compound 0.000949 µM, first compound 10 µM): 66.5% | viability, T/C [3]: 104% | viability, T/C [4]: 97% | viability, T/C (second compound 0.003 µM, first compound 0.316 µM): 86.6% | viability, T/C (second compound 0.003 µM, first compound 1 µM): 77% | viability, T/C (second compound 0.003 µM, first compound 3.16 µM): 71% | viability, T/C (second compound 0.003 µM, first compound 10 µM): 70.6% | viability, T/C [5]: 83.4% | viability, T/C [6]: 97.3% | viability, T/C (second compound 0.00949 µM, first compound 0.316 µM): 86.3% | viability, T/C (second compound 0.00949 µM, first compound 1 µM): 76.5% | viability, T/C (second compound 0.00949 µM, first compound 3.16 µM): 79.7% | viability, T/C (second compound 0.00949 µM, first compound 10 µM): 71.6% | viability, T/C [7]: 95.5% | viability, T/C [8]: 87.3% | viability, T/C (second compound 0.03 µM, first compound 0.316 µM): 92.8% | viability, T/C (second compound 0.03 µM, first compound 1 µM): 89.3% | viability, T/C (second compound 0.03 µM, first compound 3.16 µM): 81.5% | viability, T/C (second compound 0.03 µM, first compound 10 µM): 69.6% | viability, T/C [9]: 81% | viability, T/C [10]: 98.2% | viability, T/C (second compound 0.0949 µM, first compound 0.316 µM): 85.1% | viability, T/C (second compound 0.0949 µM, first compound 1 µM): 69.8% | viability, T/C (second compound 0.0949 µM, first compound 3.16 µM): 77.4% | viability, T/C (second compound 0.0949 µM, first compound 10 µM): 78.8% | viability, T/C [11]: 91.2% | viability, T/C [12]: 79.8% | viability, T/C (second compound 0.3 µM, first compound 0.316 µM): 79.4% | viability, T/C (second compound 0.3 µM, first compound 1 µM): 69.8% | viability, T/C (second compound 0.3 µM, first compound 3.16 µM): 70.2% | viability, T/C (second compound 0.3 µM, first compound 10 µM): 59.2%
